Results taken from patent US9393181B2, “Dental materials with improved hydrolysis stability based on phthalic acid monomers” (Ivoclar Vivadent AG, priority 2011, dated 2016).

Assays:
[1] = Hydrolysis stability of AAUPA in acidic solution, followed by 1H-NMR; assay type: physicochemical; conditions: 5% AAUPA, 200 ppm BHT, 5% phosphoric acid d3, 10% D2O, 80% DMSO-d6; stored at 37° C., standing time 12 weeks
Experimental: A solution of 5% of the phthalic acid acrylamide AAUPA stabilized with 200 ppm 2,6-di-t-butyl-4-methylphenol, 5% phosphoric acid d3, 10% D2O and 80% DMSO-d6 was prepared, was stored at 37° C. and examined spectroscopically with ^1H-NMR. After a standing time of 12 weeks, no changes were able to be established in the ^1H-NMR spectrum.

Solubility in solvents = assay type: physicochemical; conditions: e.g. in ethanol or acetone
Experimental: Furthermore compositions which contain water as solvent (f) are preferred. The solubility of the phthalic acid derivatives of the Formula (I) in polar solvents is good.
4-hydroxyphthalic anhydride (6.70 g; 40.8 mmol), BHT (10 mg) and N-(11-bromoundecyl)-N-methyl acrylamide (13.00 g; 40.8 mmol) were dissolved in N,N-dimethylformamide (100 ml). Potassium carbonate (5.64 g; 40.8 mmol) was added. The yellow suspension was stirred at RT. Water (200 ml) was added to the reaction mixture after 20 d and the whole stirred for 1 h at RT. An oily white solid precipitated from the initially cloudy solution. The solvent was decanted off. The residue was dissolved in dilute aqueous Na2CO3 solution (5%; 100 ml). The milky/cloudy aqueous phase was washed with MtBE (5×100 ml). Diluted hydrochloric acid (2N, 100 ml) was added to the water phase (pH=1) and extraction with MtBE (8×100 ml) took place. The combined extracts were dried over Na2SO4, filtered and concentrated on the rotary evaporator. Chloroform (150 ml) was added to the residue and the whole stirred at RT. After 20 h the suspension was filtered. The filtration residue was washed with chloroform (50 ml) and discarded. The filtrate was concentrated on the rotary evaporator. The residue was dissolved in chloroform (50 ml). Acetonitrile (50 ml) was added. After 72 h storage at −18° C. the solvent was decanted off and the residue dried under a fine vacuum.

[2] = in aqueous solutions; cited from earlier work

Compound | changes in the 1H-NMR spectrum (hydrolysis stability) [1] | solubility (Solubility in solvents) | hydrolysis to 4-MET [2]
C=CC(=O)N(C)CCCCCCCCCCCOc1ccc(C(=O)O)c(C(=O)O)c1 [AAUPA, 4-[11-(acryloyl-methyl-amino)-undecyloxy]phthalic acid] | no changes | dissolves very well | –
C=C(C)C(=O)OCCOC(=O)c1ccc2c(c1)C(=O)OC2=O [Example 4-META] | – | – | very quickly hydrolyzed
